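Five compound concentrations were applied to cells in 96-well plates for 48 hours; endpoints were derived by simple linear interpolation of the resulting dose-response curve. At the GI50, growth is halved.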 Activity calls are given as the source filed them. Cut-off read from the data, not from the text of the source: active = GI50 up to about 1.1 µM and inactive = higher.

Holding throughout (assay): growth of human tumour cells (NCI), 48 h
Assay [1] relates to DMS-114.
Assay [2] relates to KM-20L2.
Assay [3] relates to LXFL 529.
The test system of assay [4] is M19-MEL.
Assay [5] concerns XF498.
In assay [6] the test system is DLD-1.
Assay [7] has as its system SNB-78.
In assay [8] the test system is RXF 631.
The test system of assay [9] is HOP-18.

On to `CCCCCCCCCC(=O)OCC1OC(n2cc(F)c(=O)[nH]c2=O)C(NC(=O)OCc2ccccc2)C(OC(=O)CCCCCCCCC)C1O` (stereo not drawn), for which the GI50 in [1] is 18.8 µM (inactive); in [2], > 10 µM (inactive); in [3], 24.7 µM (inactive); in assay [4], 36.8 µM (inactive).

On to `CCCCc1c2c([n+]([O-])c3c1CCCC3)CCCC2`, for which the GI50 in assay [1] is > 100 µM (inactive); in assay [2], > 100 µM (inactive); in assay [3], > 100 µM (inactive); in assay [4], 66.8 µM (inactive); in assay [5] it was > 100 µM (inactive).

In the case of `Cc1nc2ccccc2c(=O)n1-c1ccccc1I`, the GI50 in [6] is > 100 µM (inactive); in assay [1], 82.4 µM (inactive); in assay [3] it was 90.4 µM (inactive); in assay [4], > 100 µM (inactive); in assay [7], > 100 µM (inactive).

Take `Cc1cc2nc3c(C(OC4OC(CO)C(O)C(O)C4O)C(O)CO)nn(-c4ccc(F)cc4)c3nc2cc1C` (stereo not drawn): the GI50 in assay [6], in [1], in assay [2], in assay [3], in assay [4] and in assay [8] was > 100 µM (inactive) in each case. Also, the GI50 in assay [7] and in assay [5] was > 100 µM (inactive) each time.

Take `Cc1n[nH]c(=S)n(C)c1=S`: the GI50 is > 100 µM (inactive) in [6]; > 100 µM (inactive) in assay [1]; 27.2 µM (inactive) in assay [9]; > 100 µM (inactive) in assay [2]; > 100 µM (inactive) in [3]; > 100 µM (inactive) in assay [4]. In addition, the GI50 in assay [8], in [7] and in [5] was > 100 µM (inactive) each time.

In the case of `C[C@@]1(O)CC[C@]2(C)C3CCCC3[C@H]12` (stereo partly drawn), the GI50 in assay [6], in assay [1], in assay [9], in [2], in assay [3] and in [4] was > 100 µM (inactive) in each case. In addition, the GI50 in [8] and in assay [7] was > 100 µM (inactive) throughout.

Take `COc1ccccc1C12OC(=O)C1(C)Oc1ccccc1C2=O` (stereo not drawn): the GI50 in [6] is > 100 µM (inactive); in assay [1], > 100 µM (inactive); in assay [2], > 100 µM (inactive); in assay [3] it was > 100 µM (inactive); in [4] it was > 100 µM (inactive); in [8], 30.8 µM (inactive). For the same molecule, the GI50 in assay [7] and in assay [5] was > 100 µM (inactive) in each case.

`N#Cc1c(C[n+]2ccccc2)c2ccccc2oc1=O`: the GI50 in assay [6], in assay [1], in [2], in assay [3], in [4] and in [7] was > 100 µM (inactive) each time. Besides, the GI50 in [5] was > 100 µM (inactive).

For `CN(C)C(=S)/N=c1\ssc(=S)n1Cc1ccncc1`, the GI50 in assay [6] is 16 µM (inactive); in assay [1], 2.39 µM (inactive); in [9], 17.7 µM (inactive); in assay [2], 32.9 µM (inactive); in [3], 16.3 µM (inactive); in assay [4], 10.7 µM (inactive). In addition, the GI50 is 3.8 µM (inactive) in assay [8], > 100 µM (inactive) in [7] and 5.66 µM (inactive) in assay [5].

In the case of `CC1=C(c2nc3ccccc3s2)C(=O)OC1(C)C`, the GI50 in [6], in assay [1], in assay [2], in assay [3], in [4] and in [8] was > 100 µM (inactive) in each case. The GI50 in [7] and in assay [5] was > 100 µM (inactive) throughout.

On to `O=[N+]([O-])c1ccc2nc(/C(=N/Nc3ccccc3)C(O)c3ccc(C(O)/C(=N\Nc4ccccc4)c4nc5ccc([N+](=O)[O-])cc5nc4O)cc3)cnc2c1` (stereo not drawn), for which the GI50 was 11.2 µM (inactive) in assay [1], 11.5 µM (inactive) in assay [2] and 58.9 µM (inactive) in [4].

For the molecule `CC1(C)C(=O)C(=Cc2ccco2)C1=O`, the GI50 in assay [6], in assay [1], in assay [9], in assay [3], in assay [4] and in assay [8] was > 100 µM (inactive) in each case. Moreover, the GI50 in [7] and in [5] was > 100 µM (inactive) each time.

Turning to `COc1cc([C@@H]2c3cc4c(cc3[C@@H](NC(=O)c3ccc([N+](=O)[O-])cc3)C3COC(=O)[C@@H]32)OCO4)cc(OC)c1O` (stereo partly drawn), the GI50 in [6] was 1.38 µM (inactive); in assay [1], 0.31 µM (active); in assay [9] it was 67.8 µM (inactive); in [2], 0.615 µM (active); in assay [3] it was 3.13 µM (inactive); in [4] it was 1.25 µM (inactive). Moreover, the GI50 in assay [8] is 1.02 µM (active); in assay [7], 1.92 µM (inactive); in [5], 0.166 µM (active).

In the case of `O=C(c1ccccc1)C1(Br)S(=O)(=O)OCCOS1(=O)=O`, the GI50 in assay [6], in [1], in assay [2], in [3], in assay [4] and in assay [7] was > 100 µM (inactive) throughout. Further, the GI50 in [5] was > 100 µM (inactive).

For `NC1=NN(c2ccccc2)C(=O)C1/C(=N\NC(=O)c1cc2ccccc2cc1O)C(=O)Nc1ccc(Cl)cc1` (stereo not drawn), the GI50 is 21.6 µM (inactive) in assay [6]; 17.9 µM (inactive) in assay [1]; 25.4 µM (inactive) in [9]; 32.7 µM (inactive) in assay [2]; 22.2 µM (inactive) in assay [3]; 26.4 µM (inactive) in assay [4]. The GI50 in [8] was 49.1 µM (inactive); in assay [7], 34.8 µM (inactive); in assay [5], 34.6 µM (inactive).

As for `O=C(NCCNCCO)c1cccc2ccc(-c3ccccc3)nc12`, the GI50 in [6] was 3.41 µM (inactive); in [1], 7.52 µM (inactive); in [9], 19 µM (inactive); in [4], 4.89 µM (inactive); in assay [8] it was 1.83 µM (inactive); in assay [7], 9.25 µM (inactive).

For the molecule `O=C(NC1C2CC3CC(C2)CC1C3)/C(Cl)=C1/Sc2ccccc2NC1=O` (stereo not drawn), the GI50 was > 100 µM (inactive) in assay [6]; > 65.5 µM (inactive) in assay [1]; > 100 µM (inactive) in assay [9]; > 100 µM (inactive) in assay [2]; 42.5 µM (inactive) in assay [3]; > 91.6 µM (inactive) in [4]. In addition, the GI50 in [7] and in assay [5] was > 100 µM (inactive) throughout.

With `OC1OCC(COc2cc(Cl)c(Cl)cc2Cl)OC1O` (stereo not drawn), the GI50 in [6] is 44.2 µM (inactive); in assay [1] it was 28.4 µM (inactive); in assay [9], 25.6 µM (inactive); in assay [2], > 100 µM (inactive); in assay [3], 46.8 µM (inactive); in [4], 66.1 µM (inactive). In addition, the results for the GI50 in assay [8] and in assay [7] were 32.7 µM (inactive) and 22.7 µM (inactive), respectively.

Regarding `COc1ccc(N2C(=O)C3CC(c4ccc(Br)cc4)c4c([nH]c5ccccc45)C3C2=O)cc1` (stereo not drawn), the GI50 in assay [6] was 10.1 µM (inactive); in assay [1], 6.93 µM (inactive); in assay [9], 7.82 µM (inactive); in [2], 9.46 µM (inactive); in [3] it was 4.07 µM (inactive); in assay [4] it was 10.2 µM (inactive). Besides, the GI50 is 14.8 µM (inactive) in assay [7] and 13 µM (inactive) in assay [5].

As for `COc1cc(/C=C/c2ccc(OC)c(O)c2)cc(OC)c1`, the GI50 in assay [6] is 5.52 µM (inactive); in assay [1], 3.33 µM (inactive); in [2], 20.4 µM (inactive); in assay [3], 6.03 µM (inactive); in assay [4], 6.41 µM (inactive); in assay [7], 5.64 µM (inactive). The GI50 in assay [5] was 3.37 µM (inactive).

With `COc1ccc(/C=C\c2cc(OC)c(OC)c(OC)c2)cc1`, the GI50 is 0.0004 µM (active) in assay [6]; 0.0013 µM (active) in assay [1]; 0.973 µM (active) in [9]; 0.000428 µM (active) in [2]; 0.000507 µM (active) in assay [3]; < 0.01 µM (active) in assay [4]. For the same molecule, the GI50 was < 0.01 µM (active) in [8], 0.000116 µM (active) in assay [7] and 0.000741 µM (active) in assay [5].

Source of the values: ChEMBL document CHEMBL1201862, “PubChem BioAssay data set” (2004).
